What all share (type): cell-based, rat
Series [1] deals with PC12 cells. The series can be described thus: Dopamine production test of PC12 cells (Experimental example 1). Particulars: 72 hours; for dopamine-producing ability, as compared to a case without these components: any one component in the medium, NGF 50 ng/ml. As to the method:
Dopamine production tests of PC12 cells, using various components, were carried out as follows.
(§1) Such passage was repeated at least three times.
(§2) Supernatants were removed.
(§3) Each sample is numbered 1 to 39.
A concentration of dopamine in each supernatant was measured. Measurement of dopamine concentration was carried out using ELIZA KIT (manufactured by ImmuSmol, Product No.: BA-E-5300) according to the specifications. A ratio of dopamine concentration in each supernatant was expressed as a percentage (%) of a control of which dopamine concentration in the supernatant is 1.
The same applies to FIGS. 2 to 5. In FIG. 1, τ means statistically significant. * means that synergistic effect was confirmed by combining two components. Synergistic effect herein means that use of two components in combination can produce more amount of dopamine than a sum of amounts of dopamine produced when each component is used alone.

The subject of series [2] is PC12 cells. The series can be described thus: Neurite extension test of PC12 cells (Experimental example 3). Particulars: 72 hours; for neurite extension effect, as compared to a case without these components: any one component in the medium, NGF 50 ng/ml. On the procedure:
Neurite extension tests of PC12 cells, using various components, were carried out as follows.
as §1, §2, §3
Supernatants were removed. Three microscopic images (bright field, ×10 images, three wells per well) of PC12 cells settled in each well were taken. The shape of the whole PC12 cells in the images was observed. A shown in FIG. 6, when PC12 cells undergo differentiation, a neurite 2 extends from a cell body 1. The total number of PC12 cells, and the number of cells having the neurite 2 with a length L2 were counted. The length L2 is a longer length than a longer diameter L1 of the cell body 1. The number of cells having the neurite with the length L2 was divided by the total number of cells to obtain an extension percentage of the PC12 cells. […] The extension percentage was expressed by an average value of all PC12 cells appearing in all images. […] The same applies to FIGS. 8 to 11. […] Synergistic effect herein means that use of two components in combination can increase the extension percentage as compared to a sum of extension percentages when each component is used alone.

The subject of series [3] is PC12 cells. The series can be described thus: Toxicity test to PC12 cells using MTT reagent (Experimental example 2). Particulars: 72 hours, 6-MSITC and DHA 2.5-160 μM, curcumin 2.5-40 μM, isorhamnetin 0.02-10 μM. As to the method:
In order to investigate toxicity of each component to PC12 cells, the PC12 cells were cultured in the same manner as in the above steps (1) to (4) of Experimental example 1, except for components added to the medium.
as §2
In general terms: Tetrazolium assays rely on reduction of a dye to a coloured formazan, in cell work by metabolically active cells.

For series [4], the system named is PC12 cells. The experiment in a line: Hydrogen peroxide toxicity resistance test, MTT (Experimental example 6). The conditions noted are these: for MTT assay in medium with hydrogen peroxide: hydrogen peroxide 100 μM, component alone or combination with 6-MSITC. As to the method:
In Experimental example 6, resistance of PC12 cells against hydrogen peroxide was tested. The test method is the same as that of Experimental example 5, except that hydrogen peroxide was added to the differentiation medium B, instead of amyloid β in Experimental example 5 above. A concentration of hydrogen peroxide in the differentiation medium B was 100 μM.

The test system of series [5] is PC12 cells. The series can be described thus: Toxicity test to PC12 cells using MTT reagent (Experimental example 4). The conditions noted are these: 72 hours, 6-MSITC and DHA 2.5-160 μM, curcumin 2.5-40 μM, isorhamnetin 2.5-20 μM. On the procedure: In order to investigate toxicity of each component to PC12 cells, the PC12 cells were cultured in the same manner as in the above steps (1) to (4) of Experimental example 3, except for components added to the medium.
as §2

The values below come from patent publication US11839637B2, “Neuron activator” (Kinjirushi Co., Ltd., priority 2017, dated 2023).

Consider `COc1cc(-c2oc3cc(O)cc(O)c3c(=O)c2O)ccc1O` [isorhamnetin, Isorhamnetin], for which the “amount of dopamine production produced by the PC12 cells vs control” value with PC12 cells [1] (0.02 μM added to the medium), in the series with PC12 cells [1] (0.1 μM added to the medium) and in the series with PC12 cells [1] (0.5 μM added to the medium) was “higher than the control” each time. For the same molecule, the “dopamine-producing ability, as compared to a case without these components” value in the series with PC12 cells [1] is “enhanced”. For the same molecule, the “extension of PC12 cells (extension percentage)” value with PC12 cells [2] (0.02 μM added to the medium), in the series on PC12 cells [2] (0.1 μM added to the medium) and in the series with PC12 cells [2] (0.5 μM added to the medium) was “significant extension enhancement” each time. In addition, in the series on PC12 cells [2], the “neurite extension effect, as compared to a case without these components” value is recorded as “enhanced”. Besides, the “MTT assay compared with control (not using the component)” value in the series with PC12 cells [3] and in the series on PC12 cells [5] was “higher than the case of not using them (control)” each time. For the same molecule, the “toxicity to PC12 cells” value with PC12 cells [3] (MTT) and in the series on PC12 cells [5] (MTT) was “low” in each case. Further, the “MTT assay in medium with hydrogen peroxide” value in the series on PC12 cells [4] was “a value without problem”.

With `COc1cc(/C=C/C(=O)CC(=O)/C=C/c2ccc(O)c(OC)c2)ccc1O` [curcumin, Curcumin], the “amount of dopamine production produced by the PC12 cells vs control” value with PC12 cells [1] (0.1 μM added to the medium) and in the series on PC12 cells [1] (2.5 μM added to the medium) was “higher than the control” each time. In addition, the “dopamine-producing ability, as compared to a case without these components” value with PC12 cells [1] was “enhanced”. The “extension of PC12 cells (extension percentage)” value in the series with PC12 cells [2] (0.1 μM added to the medium), in the series on PC12 cells [2] (0.5 μM added to the medium) and with PC12 cells [2] (2.5 μM added to the medium) was “significant extension enhancement” in each case. Moreover, in the series on PC12 cells [2], the “neurite extension effect, as compared to a case without these components” value was “enhanced”. For the same molecule, the “MTT assay in medium with hydrogen peroxide” value in the series with PC12 cells [4] is “a value without problem”.

In the case of `OO` [hydrogen peroxide, reference compound], in the series on PC12 cells [4] (medium containing only hydrogen peroxide, 100 μM), the “MTT assay, as compared to the medium without hydrogen peroxide (control)” value was “significantly decreased”.
